Measurements as given in patent US9464073B2, “Pyrimidine hydroxy amide compounds as HDAC6 selective inhibitors” (Acetylon Pharmaceuticals, Inc., priority 2014, dated 2016).
pIC50: −log10 of the molar value. “Also recorded” adds a separate entry of the source.

How the values were obtained:
HDAC1 = HDAC1 (Homo sapiens (Human), UniProt Q13547); test: HDAC enzyme assay (HDAC1); assay type: biochemical
Method: (§1) Compounds for testing were diluted in DMSO to 50 fold the final concentration and a ten point three fold dilution series was made. The compounds were diluted in assay buffer (50 mM HEPES, pH 7.4, 100 mM KCl, 0.001% Tween-20, 0.05% BSA, 20 μM TCEP) to 6 fold their final concentration. The HDAC enzymes (purchased from BPS Biosciences) were diluted to 1.5 fold their final concentration in assay buffer. The tripeptide substrate and trypsin at 0.05 μM final concentration were diluted in assay buffer at 6 fold their final concentration. The final enzyme concentrations used in these assays were 3.3 ng/ml (HDAC1), 0.2 ng/ml (HDAC2), 0.08 ng/ml (HDAC3) and 2 ng/ml (HDAC6). The final substrate concentrations used were 16 μM (HDAC1), 10 μM (HDAC2), 17 μM (HDAC3) and 14 μM (HDAC6).
(§2) Five μl of compounds and 20 μl of enzyme were added to wells of a black, opaque 384 well plate in duplicate. Enzyme and compound were incubated together at room temperature for 10 minutes. Five μl of substrate was added to each well, the plate was shaken for 60 seconds and placed into a Victor 2 microtiter plate reader. The development of fluorescence was monitored for 60 min and the linear rate of the reaction was calculated. The IC50 was determined using Graph Pad Prism by a four parameter curve fit.

HDAC2 = HDAC2 (Homo sapiens (Human), UniProt Q92769); test: HDAC enzyme assay (HDAC2); assay type: biochemical
Method: as §1, §2

HDAC3 = HDAC3 (Homo sapiens (Human), UniProt O15379); test: HDAC enzyme assay (HDAC3); assay type: biochemical
Method: as §1, §2

HDAC6 = HDAC6 (Homo sapiens (Human), UniProt Q9UBN7); test: HDAC enzyme assay (HDAC6); assay type: biochemical
Method: as §1, §2

[1] = Rat pharmacokinetic studies; assay type: in vivo; conditions: plasma, male SD rats; for clearance: IV 1 mg/kg; for bioavailability: PO 5 mg/kg vs IV 1 mg/kg, dose adjusted AUC
Method: Male SD rats were fasted overnight. Compounds of the invention as well as two previously known HDAC6 inhibitors, Compounds A and B were dissolved in dimethyl acetamide at 10 times the final concentration, then Solutol HS 15 (BASF) was added to a final concentration of 10%. Finally 80% saline was added and vortexed to achieve a clear solution. For the IV dosing three animals were injected via the foot dorsal vein with 1 mg/kg compound. For the PO dosing 5 mg/kg of compound was delivered by oral gavage. Blood was collected via the tail vein into K2EDTA tubes at 5 minutes, 15 minutes, 30 minutes, 1 hour, 2 hours, 4 hours, 8 hours and 24 hours after dosing. The blood was centrifuged at 2000 g for 5 minutes at 4° C. to obtain plasma. The plasma was extracted with acetonitrile and the level of compound was analyzed by LC/MS/MS. The level of compound in plasma was calculated from a standard curve in rat plasma. The IV clearance and area under the curve were calculated using WinNonLin software. The dose adjusted area under the curve for the IV and oral dosing were used to calculate the oral bioavailability. Compounds A and B, previously known HDAC6 inhibitors, are shown below (See, e.g., U.S. Pat. No. 8,614,223): […]

[2] = Mouse pharmacokinetic studies; assay type: in vivo; conditions: male C57BL/6 mice, IV 1 mg/kg, from AUC in plasma and brain; for Kp: mouse, read-out: Mouse plasma/brain ratio
Method: Male C57BL/6 mice were fasted overnight. Compounds of the invention as well as two previously known HDAC6 inhibitors, Compounds A and B, were dissolved in dimethyl acetamide at 10 times the final concentration, then Solutol HS 15 (BASF) was added to a final concentration of 10%. Finally 80% saline was added and vortexed to achieve a clear solution. Fifteen animals were injected via the tail vein with 1 mg/kg compound. Blood was collected by retro-orbital bleed at 5 minutes, 15 minutes, 30 minutes, 1 hour, 2 hours, 4 hours, 8 hours and 24 hours after dosing. At 5 minutes, 30 minutes, 1 hour and 4 hours after dosing three animals per time point were sacrificed and brains were removed. The blood was centrifuged at 2000 g for 5 minutes at 4° C. to obtain plasma. Brain samples were homogenized in PBS. The plasma and brain homogenate were extracted with acetonitrile and the level of compound was analyzed by LC/MS/MS. The level of compound in plasma was calculated from a standard curve in rat plasma and the level in brain was calculated from a standard curve in brain homogenate. The area under the curve in plasma and brain were calculated using WinNonLin software. The brain to plasma ratio was determined using the area under the curve values for the two compartments.

taxol treated rats = test: Taxol induced neuropathic pain study in rats (Von Frey testing); assay type: in vivo, rat
Method: This study included a histology endpoint in addition to the von Frey testing for paw sensitivity.
Neuropathic pain is induced by a 0.5 ml/kg injection of Taxol (2 mg/kg) administered IP on days 0-12. The development of neuropathic pain is confirmed by measuring mechanical allodynia (Von Frey test) on study day 13.
Allodynic response to tactile stimulation is assessed using the Von Frey apparatus (Touch Test®).
The rat will be placed in an enclosure and positioned on a metal mesh surface, but allowed to move freely. The rats' cabins are covered with red cellophane to diminish environmental disturbances. The test begins after a cessation of exploratory behavior. The set of Von Frey monofilaments provide an approximate logarithmic scale of actual force and a linear scale of perceived intensity.
The operating principle: when the tip of a fiber of given length and diameter is pressed against the skin at right angles, the force of application increases as long as the researcher continues to advance the probe until the fiber bends. After the fiber bends, the probe continues to advance, causing the fiber to bend more, but without additional force being applied. […] The Touch Test™ Sensory Evaluator can be used on the plantar surfaces of the rat's foot. The animal indicates sensation by pulling back its paw. The minimal force needed to elevate the withdrawal reflex is considered/designated as the value of reference. In order to achieve paw withdrawal, the pressure applied is sometimes greater than 60 g, often requiring the researcher to apply enough pressure with the Von Frey filament to actually lift the paw of the naive animal. Decreases in force needed to induce withdrawal are indicative of allodynia, as the force applied is a non-painful stimulus under normal conditions.

HDAC6, sequence (Q9UBN7 whole entry): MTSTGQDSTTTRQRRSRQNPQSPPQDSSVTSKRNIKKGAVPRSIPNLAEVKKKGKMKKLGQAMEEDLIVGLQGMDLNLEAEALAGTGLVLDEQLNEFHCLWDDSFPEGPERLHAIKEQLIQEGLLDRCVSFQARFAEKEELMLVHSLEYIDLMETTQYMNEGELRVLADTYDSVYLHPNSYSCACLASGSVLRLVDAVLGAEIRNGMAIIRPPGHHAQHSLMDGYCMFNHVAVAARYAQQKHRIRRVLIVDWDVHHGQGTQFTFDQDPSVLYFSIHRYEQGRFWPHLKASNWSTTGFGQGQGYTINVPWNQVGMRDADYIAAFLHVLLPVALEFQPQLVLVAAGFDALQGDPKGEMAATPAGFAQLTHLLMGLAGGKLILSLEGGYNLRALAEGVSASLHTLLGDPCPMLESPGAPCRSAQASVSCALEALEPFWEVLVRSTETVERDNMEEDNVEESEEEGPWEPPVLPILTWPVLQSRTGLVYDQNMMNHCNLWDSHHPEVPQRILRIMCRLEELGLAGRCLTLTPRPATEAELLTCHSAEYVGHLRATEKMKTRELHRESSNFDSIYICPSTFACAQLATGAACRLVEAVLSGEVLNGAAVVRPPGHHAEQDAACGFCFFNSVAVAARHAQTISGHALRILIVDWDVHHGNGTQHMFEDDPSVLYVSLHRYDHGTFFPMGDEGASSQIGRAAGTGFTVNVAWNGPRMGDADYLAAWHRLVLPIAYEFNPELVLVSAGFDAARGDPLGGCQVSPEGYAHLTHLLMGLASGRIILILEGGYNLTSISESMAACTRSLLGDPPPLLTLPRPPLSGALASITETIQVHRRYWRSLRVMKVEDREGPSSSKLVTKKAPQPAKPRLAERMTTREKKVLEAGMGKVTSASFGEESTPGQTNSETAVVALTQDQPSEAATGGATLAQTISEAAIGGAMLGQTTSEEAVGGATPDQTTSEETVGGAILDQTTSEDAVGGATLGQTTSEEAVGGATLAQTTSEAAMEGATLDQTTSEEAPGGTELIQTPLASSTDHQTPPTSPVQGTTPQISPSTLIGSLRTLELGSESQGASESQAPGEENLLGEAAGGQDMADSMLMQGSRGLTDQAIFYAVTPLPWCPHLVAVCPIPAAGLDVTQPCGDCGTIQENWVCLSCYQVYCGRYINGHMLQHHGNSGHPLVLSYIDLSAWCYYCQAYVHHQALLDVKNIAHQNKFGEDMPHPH
HDAC3, sequence (O15379 whole entry): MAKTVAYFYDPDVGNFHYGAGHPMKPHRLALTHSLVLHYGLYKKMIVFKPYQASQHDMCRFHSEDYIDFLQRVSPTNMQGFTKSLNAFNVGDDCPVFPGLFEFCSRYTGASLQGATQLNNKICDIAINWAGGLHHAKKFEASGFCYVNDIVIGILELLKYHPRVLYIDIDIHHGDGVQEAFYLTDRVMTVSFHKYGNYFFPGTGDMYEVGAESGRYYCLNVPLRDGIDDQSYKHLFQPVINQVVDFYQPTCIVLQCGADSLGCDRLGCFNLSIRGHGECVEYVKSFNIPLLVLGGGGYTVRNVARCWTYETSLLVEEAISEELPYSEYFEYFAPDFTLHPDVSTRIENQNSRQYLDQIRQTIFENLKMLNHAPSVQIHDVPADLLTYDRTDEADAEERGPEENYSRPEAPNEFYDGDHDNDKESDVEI
HDAC3, sequence (Q9Y618 395-489 partner): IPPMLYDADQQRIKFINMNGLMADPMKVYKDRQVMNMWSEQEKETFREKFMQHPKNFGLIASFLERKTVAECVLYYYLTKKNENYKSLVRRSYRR
HDAC2, sequence (Q92769 whole entry): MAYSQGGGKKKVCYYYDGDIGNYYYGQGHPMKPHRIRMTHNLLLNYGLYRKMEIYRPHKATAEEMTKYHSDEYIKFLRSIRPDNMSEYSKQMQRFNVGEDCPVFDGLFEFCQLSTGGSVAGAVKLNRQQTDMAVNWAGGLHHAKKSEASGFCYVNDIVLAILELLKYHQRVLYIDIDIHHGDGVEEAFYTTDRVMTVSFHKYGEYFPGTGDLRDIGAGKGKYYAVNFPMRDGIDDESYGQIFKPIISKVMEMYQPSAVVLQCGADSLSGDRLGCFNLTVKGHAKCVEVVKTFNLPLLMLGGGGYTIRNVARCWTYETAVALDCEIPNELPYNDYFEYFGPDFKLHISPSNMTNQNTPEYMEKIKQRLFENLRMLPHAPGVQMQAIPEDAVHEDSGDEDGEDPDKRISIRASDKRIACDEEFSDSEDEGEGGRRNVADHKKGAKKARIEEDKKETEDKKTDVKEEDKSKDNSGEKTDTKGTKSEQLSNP
HDAC1, sequence (Q13547 whole entry): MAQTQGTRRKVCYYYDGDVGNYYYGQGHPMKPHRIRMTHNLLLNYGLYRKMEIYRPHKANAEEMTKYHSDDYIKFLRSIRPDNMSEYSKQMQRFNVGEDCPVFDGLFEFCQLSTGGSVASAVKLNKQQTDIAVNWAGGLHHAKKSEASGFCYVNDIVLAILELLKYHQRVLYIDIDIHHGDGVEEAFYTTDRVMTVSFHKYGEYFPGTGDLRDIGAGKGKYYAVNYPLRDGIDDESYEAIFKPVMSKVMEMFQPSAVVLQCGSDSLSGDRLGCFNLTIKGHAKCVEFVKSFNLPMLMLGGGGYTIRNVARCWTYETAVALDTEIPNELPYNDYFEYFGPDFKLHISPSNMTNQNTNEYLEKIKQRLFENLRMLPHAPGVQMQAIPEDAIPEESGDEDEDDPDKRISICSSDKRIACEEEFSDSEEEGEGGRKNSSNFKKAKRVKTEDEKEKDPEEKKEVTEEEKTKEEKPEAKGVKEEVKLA

Structure (SMILES) | pIC50 (HDAC1) | pIC50 (HDAC2) | pIC50 (HDAC3) | pIC50 (HDAC6) | clearance [1] [mL/min/kg] | bioavailability [1] [%] | Kp [2] | withdrawal force (Von Frey) (taxol treated rats; 1 mg/kg PO b.i.d., study day 15) [g] | mean group withdrawal force (Von Frey) (taxol treated rats; study day 13 pre-dosing, last dose on day 12 (b.i.d.)) [g] | reversal of nociception / tactile allodynia (taxol treated rats; taxol treated rats, 1, 3, 10 mg/kg PO b.i.d.) | Mouse plasma/brain ratio [2] | withdrawal force (Von Frey) (taxol treated rats; 150 mg/kg IP, 2 hours post dosing, study day 13) [g] | withdrawal force (Von Frey) (taxol treated rats; 150 mg/kg IP, 2 hours post dosing, study day 14) [g] | withdrawal force (Von Frey) (taxol treated rats; 150 mg/kg IP, 2 hours post dosing, study day 15) [g]
O=C(NO)c1cnc(NC2(c3cc(F)cc(F)c3)CCCCC2)nc1 [Compound 001] | 5.98 | 6.06 | 5.21 | 8.54 | 91.7 | 11.1 | 2.55 | – | – | – | – | – | – | –
O=C(NO)c1cnc(NC2(c3cc(F)ccc3F)CCOCC2)nc1 [Compound 002] | 6.93 | 6.97 | 6.17 | 8.62 | 93.3 | 18.4 | 0.45 | – | – | – | – | – | – | –
O=C(NO)c1cnc(NC2(c3ccccc3)CCC(F)(F)CC2)nc1 [Compound 003] | 6.02 | 6.01 | 5.36 | 8.43 | 61.7 | 41.5 | 0.67 | 58.30 ± 1.70 | 41.10 ± 5.88 | completely reversed nociception; also recorded: reduced tactile allodynia | – | – | – | –
O=C(NO)c1cnc(NC2(c3cccc(F)c3)CCC3(CC2)OCCO3)nc1 [Compound 004] | 6.15 | 6.08 | 5.74 | 8.41 | – | – | – | – | – | – | – | – | – | –
O=C(NO)c1cnc(NC2(c3ccccc3)CC2)nc1 [Compound A, reference compound] | – | – | – | – | 100 | 16.5 | – | – | – | – | 1.23 | – | – | –
O=C(NO)c1cnc(NC2(c3cccc(F)c3)CCCCC2)nc1 [Compound B, reference compound] | – | – | – | – | 38.3 | 7.9 | – | – | – | – | 1.28 | – | – | –
NCC1(CC(=O)O)CCCCC1 [gabapentin, reference compound] | – | – | – | – | – | – | – | – | – | – | – | 58.30 ± 1.70 | 60.00 ± 0.00 | 58.30 ± 1.70
